Columns and labels:
B-cell = test: toxicity to B-cell in the presence of 2'-deoxyguanosine; type: cell-based; conditions: in the presence of the same amount (10 micromoles) of 2'-deoxyguanosine
Text: (§1) The same compounds also were found by a standard test (Science, 214, 1137, 1981) to be selectively cytotoxic for T-cells in the presence of 2'-deoxyguanosine at a similar concentration range. For example, 2,8-diamino-9-[(2-hydroxyethoxy)methyl)]-9H-purine-6-ol is selectively cytotoxic to T-cell at a concentration of about 30 micromoles in the presence of 10 micromoles of 2'-deoxyguanosine. Similarly, 2-[(2,8-diamino-6-hydroxy-9H-purin-9-yl)methoxy]-1,3-propanediol is selectively cytotoxic to T-cell at a concentration of about 7 micromoles in the presence of 10 micromoles of 2'-deoxyguanosine. Both compounds were nontoxic to B-cell in the presence of the same amount of 2'-deoxyguanosine. Since T-cells play a central role in immune response, use of the compounds of the invention is contemplated for the immunoregulation of autoimmune diseases such as rheumatoid arthritis, systemic lupus erythematosus, inflammatory bowel disease, cancer, and viral diseases, transplantation, juvenile diabetes, myasthenia gravis, and multiple sclerosis. The present invention thus includes compositions containing a compound of formula 1 in treating disease such as autoimmune disease characterized by abnormal immune response in warmblooded animals. […]

T-cells = test: selective cytotoxicity for T-cells in the presence of 2'-deoxyguanosine (standard test, Science, 214, 1137, 1981); type: cell-based; conditions: in the presence of 10 micromoles of 2'-deoxyguanosine
Text: as §1

Nc1nc(O)c2nc(N)n(COC(CO)CO)c2n1 [2-[(2,8-Diamino-6-hydroxy-9H-purin-9-yl)methoxy]-1,3-propanediol]
toxicity to B-cell (B-cell): nontoxic | concentration at which selectively cytotoxic to T-cell (T-cells): about 7 micromoles

Nc1nc2c(nc(N)n2COCCO)c(=O)[nH]1 [2,8-Diamino-9-[(2-hydroxyethoxy)methyl)]-9H-purin-6-ol]
toxicity to B-cell (B-cell): nontoxic | concentration at which selectively cytotoxic to T-cell (T-cells): about 30 micromoles
